The nature of data set [1]: Rat PO cassette assay (oral bioavailability). It is filed as in vivo, Sprague-Dawley rats. The note with it: male, Sprague-Dawley, plasma, single oral gavage vs intravenous dose, 0.5 mg/kg. From the text:
Oral bioavailability, or % F, is a measure of the percentage of a drug in an oral dose that actually reaches the systemic circulation. Compound losses can occur due to incomplete formulation dissolution, incomplete absorption due to compound insolubility or instability along the GI, or metabolism in the gut or across the gut wall. The fraction of the dose which reaches the hepatic portal vein must also then pass through the liver before reaching the systemic circulation. Compound metabolism, or “first-pass extraction,” can occur during this initial passage through the liver, and this is an additional potential source of compound loss. Oral bioavailability is calculated as the dose-normalized ratio of drug exposure after an oral dose to that after an intravenous dose, wherein the entire dose is delivered directly to the systemic circulation.
Each cassette study begins with 10 mM DMSO stock solutions of up to 5 different compounds. Typically, compounds are selected such no two compounds dosed in the same cassette have a molecular weight within 5 Da of each other. This simplifies subsequent bioanalysis. Appropriate volumes of each DMSO stock are added into a volume of vehicle (5% sodium bicarbonate, 5% dextrose in H2O) such that the final concentration of each compound is 0.25 mg/mL. Intravenous dosing solutions are sterile-filtered (0.2 μm) prior to dosing.
Pre-cannulated male Sprague-Dawley rats (3 per cassette per route) between 8 and 10 weeks of age were obtained from Harlan Laboratories (Indianapolis, Ind.). Rats received either a single oral gavage or a single intravenous (via lateral tail vein) dose (2 mL/kg) of the dosing solution. The final dose was 0.5 mg/kg. Serial blood samples were harvested via jugular vein cannula at 3 minutes, 15 minutes, 30 minutes, 1 hours, 2 hours, 4 hours, 6 hours, and 24 hours post-dose. Sampling was performed either manually or using automated blood samplers. Samples were collected into microtainer tubes containing EDTA as the anticoagulant and are processed to plasma by refrigerated centrifugation.
Plasma samples were extracted with 3 volumes of MeCN containing a suitable internal standard. Extracts were reconstituted into 3 volumes of water containing 1% formic acid, and analyzed via HPLC-coupled MS/MS. Plasma concentration-time data were analyzed using the Phoenix software (Pharsight Corp., St. Louis, Mo.) to calculate pharmacokinetic parameters.
Compounds of the invention of particular interest were those having a % F>10%, when tested in this assay.

The target of another data set is human NEP (Homo sapiens (Human), UniProt P08473). Nature of the data set: In vitro enzyme inhibition assay at human NEP. The note with it: recombinant human NEP, fluorogenic peptide substrate, 37° C.; for Ki: pKi.

Some results are limits rather than exact numbers.

human NEP, sequence (P08473 52-750): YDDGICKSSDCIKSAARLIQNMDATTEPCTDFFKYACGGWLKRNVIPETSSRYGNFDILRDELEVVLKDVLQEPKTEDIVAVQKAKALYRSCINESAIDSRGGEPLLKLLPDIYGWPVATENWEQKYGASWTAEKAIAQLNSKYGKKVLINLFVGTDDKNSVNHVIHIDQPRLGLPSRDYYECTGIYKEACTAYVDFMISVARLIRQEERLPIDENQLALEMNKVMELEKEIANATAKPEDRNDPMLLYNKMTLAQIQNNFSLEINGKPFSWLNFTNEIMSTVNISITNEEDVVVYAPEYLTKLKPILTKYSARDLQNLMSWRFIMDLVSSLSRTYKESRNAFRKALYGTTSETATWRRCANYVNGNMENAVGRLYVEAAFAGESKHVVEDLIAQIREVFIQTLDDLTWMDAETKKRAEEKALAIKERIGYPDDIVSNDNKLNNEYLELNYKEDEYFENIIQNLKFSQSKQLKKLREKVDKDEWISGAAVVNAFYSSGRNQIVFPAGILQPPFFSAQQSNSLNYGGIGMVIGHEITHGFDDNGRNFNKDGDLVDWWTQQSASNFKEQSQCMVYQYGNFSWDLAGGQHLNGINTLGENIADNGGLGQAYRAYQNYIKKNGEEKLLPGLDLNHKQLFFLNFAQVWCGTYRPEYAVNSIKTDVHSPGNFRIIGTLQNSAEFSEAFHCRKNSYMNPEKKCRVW

As to `CCOC[C@H](C[C@@H](Cc1ccc(-c2cc(Cl)ccc2F)cc1)NC(=O)c1cc(O)no1)C(=O)O` [Example 7-4, (2S,4S)-5-(5′-Chloro-2′-fluoro-biphenyl-4-yl)-2-ethoxymethyl-4-[(3-hydroxy-isoxazole-5-carbonyl)amino]pentanoic acid], the bioavailability in data set [1] was > 10%. Further, the pKi entry at human NEP was “≧9.0”.
As to `CCOC(=O)[C@H](N)C[C@@H](Cc1ccc(-c2cc(Cl)ccc2F)cc1)NC(=O)c1cnn[nH]1` [Example 14a, (2R,4R)-2-Amino-5-(5′-chloro-2′-fluorobiphenyl-4-yl)-4-[(3H-[1,2,3]triazole-4-carbonyl)amino]pentanoic Acid Ethyl Ester], in data set [1], the bioavailability is > 10%. Also, on human NEP, the inhibitory constant (Ki) fell in the range of 10 to 31.6 nM.
On the same counts, the results for `CCCCCCOC(=O)[C@H](N)C[C@@H](Cc1ccc(-c2cc(Cl)ccc2F)cc1)NC(=O)c1cnn[nH]1` [Example 14b, (2R,4R)-2-Amino-5-(5′-chloro-2′-fluorobiphenyl-4-yl)-4-[(3H-[1,2,3]triazole-4-carbonyl)amino]pentanoic Acid Hexyl Ester] are > 10% and 31.6 to 100 nM.
On the same counts, the results for `CCOC(=O)[C@H](N)C[C@@H](Cc1ccc(-c2cc(Cl)ccc2F)cc1)NC(=O)c1cc(C(C)=O)n[nH]1` [Example 16-10, (2R,4R)-4-[(5-Acetyl-2H-pyrazole-3-carbonyl)amino]-2-amino-5-(5′-chloro-2′-fluoro-biphenyl-4-yl)pentanoic acid ethyl ester] are > 10% and 10 to 31.6 nM.
For `Cc1ccccc1-c1n[nH]c(C(=O)N[C@H](Cc2ccc(-c3cc(Cl)ccc3F)cc2)C[C@@H](N)C(=O)O)c1F` [Example 16-23, (2R,4R)-2-Amino-5-(5′-chloro-2′-fluorobiphenyl-4-yl)-4-[(4-fluoro-5-o-tolyl-2H-pyrazole-3-carbonyl)amino]pentanoic acid], in data set [1], the bioavailability was > 10%. Besides, the pKi result on human NEP is listed as “≧9.0”.
The corresponding values for `N[C@H](C[C@@H](Cc1ccc(-c2cc(Cl)ccc2F)cc1)NC(=O)c1cc(-c2ccccc2Cl)no1)C(=O)O` [Example 16-24, (2R,4R)-2-Amino-5-(5′-chloro-2′-fluorobiphenyl-4-yl)-4-{[3-(2-chlorophenyl)-isoxazole-5-carbonyl]amino}pentanoic acid] are > 10% and “≧9.0”.
On the same counts, the results for `CCc1cc(C(=O)N[C@H](Cc2ccc(-c3cc(Cl)ccc3F)cc2)C[C@@H](CN)C(=O)O)on1` [Example 21-1, (2S,4S)-2-Aminomethyl-5-(5′-chloro-2′-fluorobiphenyl-4-yl)-4-[(3-ethylisoxazole-5-carbonyl)amino]pentanoic acid] are > 10% and “≧9.0”.
With `CCc1cc(C(=O)N[C@H](Cc2ccc(-c3cc(Cl)ccc3F)cc2)C[C@@H](NC(=O)OC)C(=O)O)on1` [Example 29, (2R,4R)-5-(5′-Chloro-2′-fluorobiphenyl-4-yl)-4-[(3-ethylisoxazole-5-carbonyl)amino]-2-methoxycarbonylaminopentanoic Acid], the bioavailability in data set [1] is > 10%. Further, the Ki on human NEP was ≤ 1 nM.
As to `COC(=O)N[C@H](C[C@@H](Cc1ccc(-c2cc(Cl)ccc2F)cc1)NC(=O)c1ncc(C)o1)C(=O)O` [Example 30-4, (2R,4R)-5-(5′-Chloro-2′-fluorobiphenyl-4-yl)-2-methoxycarbonylamino-4-[(5-methyloxazole-2-carbonyl)amino]pentanoic acid], the bioavailability in data set [1] is > 10%. Further, on human NEP, the pKi entry is “≧9.0”.
For `CCc1nc(C(=O)N[C@H](Cc2ccc(-c3cc(Cl)ccc3F)cc2)C[C@@H](NC(=O)OC)C(=O)O)co1` [Example 30-6, (2R,4R)-5-(5′-Chloro-2′-fluorobiphenyl-4-yl)-4-[(2-ethyl-oxazole-4-carbonyl)amino]-2-methoxycarbonylaminopentanoic acid], in data set [1], the bioavailability was > 10%. Also, the pKi entry at human NEP was “≧9.0”.
The corresponding values for `COC(=O)N[C@H](C[C@@H](Cc1ccc(-c2cc(Cl)ccc2F)cc1)NC(=O)c1ccc(Cl)cn1)C(=O)O` [Example 30-12, (2R,4R)-5-(5′-Chloro-2′-fluorobiphenyl-4-yl)-4-[(5-chloro-pyridine-2-carbonyl)-amino]-2-methoxycarbonylaminopentanoic acid] are > 10% and “≧9.0”.

As a reminder, the bioavailability is the share of a dose that reaches the circulation, judged against a reference dose that is usually intravenous. Higher therefore signals much systemic uptake. A word on the Ki: it is the dissociation constant of the complex between target and ligand, obtained from inhibition or displacement.

Source of the values: US9593110B2, “Neprilysin inhibitors” (Theravence Biopharma R&D IP, LLC, priority 2014, dated 2017).
